Assays:
Assay in all cases: relative viability (nuclei count vs DMSO), 5 days (fraction); higher = more cells survive
NCI-H596 = system: NCI-H596
Outline: (§1)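 Lung cancer cell lines in 1536-well plates were dosed by pin tool the day after seeding, either with one drug alone or with a fixed anchor-drug dose plus five library-drug doses (not always all listed) in √10 steps. After 5 days, cells were fixed and their nuclei stained in one step (final 0.05% Triton X-100, 1% formaldehyde, 1 ug/ml Hoechst), then counted on 4× images. Relative viability is the nuclei count in treated wells divided by that in vehicle wells. Values are medians of duplicate plates.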

NCI-H520 = system: NCI-H520
Outline: as §1

RERF-LC-KJ = system: RERF-LC-KJ
Outline: as §1

NCI-H1944 = system: NCI-H1944
Outline: as §1

NCI-H727 = system: NCI-H727
Outline: as §1

CAL-12T = system: CAL-12T
Outline: as §1

HARA = system: HARA
Outline: as §1

NCI-H838 = system: NCI-H838
Outline: as §1

NCI-H661 = system: NCI-H661
Outline: as §1

NCI-H2085 = system: NCI-H2085
Outline: as §1

NCI-H1651 = system: NCI-H1651
Outline: as §1

NCI-H1666 = system: NCI-H1666
Outline: as §1

NCI-H1975 = system: NCI-H1975
Outline: as §1

NCI-H1734 = system: NCI-H1734
Outline: as §1

LOU-NH91 = system: LOU-NH91
Outline: as §1

NCI-H647 = system: NCI-H647
Outline: as §1

LCLC-103H = system: LCLC-103H
Outline: as §1

NCI-H2126 = system: NCI-H2126
Outline: as §1

BEN = system: BEN
Outline: as §1

SW 900 = system: SW 900
Outline: as §1

ABC-1 = system: ABC-1
Outline: as §1

NCI-H460 = system: NCI-H460
Outline: as §1

A-427 = system: A-427
Outline: as §1

`CCNC(=O)c1noc(-c2cc(C(C)C)c(O)cc2O)c1-c1ccc(CN2CCOCC2)cc1` [Luminespib] + O=C(c1cc(Cc2n[nH]c(=O)c3ccccc23)ccc1F)N1CCN(C(=O)C2CC2)CC1 [Olaparib] (partner 8 µM) was tested, and the relative viability (NCI-H596; first compound 0.002 µM) was 0.752, the relative viability (NCI-H596; first compound 0.006325 µM) was 0.695 and the relative viability (NCI-H596; first compound 0.02 µM) was 0.749. It also gave a relative viability (NCI-H596; first compound 0.06325 µM) of 0.617, a relative viability (NCI-H596; first compound 0.2 µM) of 0.602 and a relative viability (NCI-H520; first compound 0.002 µM) of 0.361. The relative viability (NCI-H520; first compound 0.006325 µM) was 0.302, the relative viability (NCI-H520; first compound 0.02 µM) was 0.227 and the relative viability (NCI-H520; first compound 0.06325 µM) was 0.139. It also gave a relative viability (NCI-H520; first compound 0.2 µM) of 0.112, a relative viability (RERF-LC-KJ; first compound 0.002 µM) of 0.857 and a relative viability (RERF-LC-KJ; first compound 0.006325 µM) of 0.934. It also gave a relative viability (RERF-LC-KJ; first compound 0.02 µM) of 0.49, a relative viability (RERF-LC-KJ; first compound 0.06325 µM) of 0.235 and a relative viability (RERF-LC-KJ; first compound 0.2 µM) of 0.212. For the same compound, the relative viability (NCI-H1944; first compound 0.002 µM) was 0.445, the relative viability (NCI-H1944; first compound 0.006325 µM) was 0.394 and the relative viability (NCI-H1944; first compound 0.02 µM) was 0.364. It also gave a relative viability (NCI-H1944; first compound 0.06325 µM) of 0.418, a relative viability (NCI-H1944; first compound 0.2 µM) of 0.33 and a relative viability (NCI-H727; first compound 0.002 µM) of 0.674. It also gave a relative viability (NCI-H727; first compound 0.006325 µM) of 0.767, a relative viability (NCI-H727; first compound 0.02 µM) of 0.695 and a relative viability (NCI-H727; first compound 0.06325 µM) of 0.403. The relative viability (NCI-H727; first compound 0.2 µM) was 0.271, the relative viability (CAL-12T; first compound 0.002 µM) was 0.671 and the relative viability (CAL-12T; first compound 0.006325 µM) was 0.679. It also gave a relative viability (CAL-12T; first compound 0.02 µM) of 0.959, a relative viability (CAL-12T; first compound 0.06325 µM) of 0.136 and a relative viability (CAL-12T; first compound 0.2 µM) of 0.182. For the same compound, the relative viability (HARA; first compound 0.002 µM) was 0.425, the relative viability (HARA; first compound 0.006325 µM) was 0.814 and the relative viability (HARA; first compound 0.02 µM) was 0.997. It also gave a relative viability (HARA; first compound 0.06325 µM) of 0.146, a relative viability (HARA; first compound 0.2 µM) of 0.102 and a relative viability (NCI-H838; first compound 0.002 µM) of 0.772. It also gave a relative viability (NCI-H838; first compound 0.006325 µM) of 0.782, a relative viability (NCI-H838; first compound 0.02 µM) of 0.723 and a relative viability (NCI-H838; first compound 0.06325 µM) of 0.122. For the same compound, the relative viability (NCI-H838; first compound 0.2 µM) was 0.129, the relative viability (NCI-H661; first compound 0.002 µM) was 0.754 and the relative viability (NCI-H661; first compound 0.006325 µM) was 0.804. For the same compound, the relative viability (NCI-H661; first compound 0.02 µM) was 0.807, the relative viability (NCI-H661; first compound 0.06325 µM) was 0.414 and the relative viability (NCI-H661; first compound 0.2 µM) was 0.3. The relative viability (NCI-H2085; first compound 0.002 µM) was 0.78, the relative viability (NCI-H2085; first compound 0.006325 µM) was 0.742 and the relative viability (NCI-H2085; first compound 0.02 µM) was 0.766. The relative viability (NCI-H2085; first compound 0.06325 µM) was 0.425, the relative viability (NCI-H2085; first compound 0.2 µM) was 0.337 and the relative viability (NCI-H1651; first compound 0.002 µM) was 0.195. For the same compound, the relative viability (NCI-H1651; first compound 0.006325 µM) was 0.177, the relative viability (NCI-H1651; first compound 0.02 µM) was 0.251 and the relative viability (NCI-H1651; first compound 0.06325 µM) was 0.181. It also gave a relative viability (NCI-H1651; first compound 0.2 µM) of 0.165, a relative viability (NCI-H1666; first compound 0.002 µM) of 0.778 and a relative viability (NCI-H1666; first compound 0.006325 µM) of 0.733. For the same compound, the relative viability (NCI-H1666; first compound 0.02 µM) was 0.753, the relative viability (NCI-H1666; first compound 0.06325 µM) was 0.75 and the relative viability (NCI-H1666; first compound 0.2 µM) was 0.716. For the same compound, the relative viability (NCI-H1975; first compound 0.002 µM) was 0.875, the relative viability (NCI-H1975; first compound 0.006325 µM) was 0.802 and the relative viability (NCI-H1975; first compound 0.02 µM) was 0.919. It also gave a relative viability (NCI-H1975; first compound 0.06325 µM) of 0.128, a relative viability (NCI-H1975; first compound 0.2 µM) of 0.156 and a relative viability (NCI-H1734; first compound 0.002 µM) of 0.646. The relative viability (NCI-H1734; first compound 0.006325 µM) was 0.595, the relative viability (NCI-H1734; first compound 0.02 µM) was 0.476 and the relative viability (NCI-H1734; first compound 0.06325 µM) was 0.152. It also gave a relative viability (NCI-H1734; first compound 0.2 µM) of 0.13, a relative viability (LOU-NH91; first compound 0.002 µM) of 0.967 and a relative viability (LOU-NH91; first compound 0.006325 µM) of 0.89. It also gave a relative viability (LOU-NH91; first compound 0.02 µM) of 0.445, a relative viability (LOU-NH91; first compound 0.06325 µM) of 0.351 and a relative viability (LOU-NH91; first compound 0.2 µM) of 0.348. For the same compound, the relative viability (NCI-H647; first compound 0.002 µM) was 0.536, the relative viability (NCI-H647; first compound 0.006325 µM) was 0.577 and the relative viability (NCI-H647; first compound 0.02 µM) was 0.273. For the same compound, the relative viability (NCI-H647; first compound 0.06325 µM) was 0.0706, the relative viability (NCI-H647; first compound 0.2 µM) was 0.059 and the relative viability (LCLC-103H; first compound 0.002 µM) was 0.76. For the same compound, the relative viability (LCLC-103H; first compound 0.006325 µM) was 0.73, the relative viability (LCLC-103H; first compound 0.02 µM) was 0.78 and the relative viability (LCLC-103H; first compound 0.06325 µM) was 0.681. It also gave a relative viability (LCLC-103H; first compound 0.2 µM) of 0.809, a relative viability (NCI-H2126; first compound 0.002 µM) of 0.924 and a relative viability (NCI-H2126; first compound 0.006325 µM) of 0.887. The relative viability (NCI-H2126; first compound 0.06325 µM) was 0.899, the relative viability (NCI-H2126; first compound 0.2 µM) was 0.903 and the relative viability (BEN; first compound 0.002 µM) was 1.24. It also gave a relative viability (BEN; first compound 0.006325 µM) of 0.905, a relative viability (BEN; first compound 0.02 µM) of 0.823 and a relative viability (BEN; first compound 0.06325 µM) of 0.273. The relative viability (BEN; first compound 0.2 µM) was 0.279, the relative viability (SW 900; first compound 0.002 µM) was 0.688 and the relative viability (SW 900; first compound 0.006325 µM) was 0.81. For the same compound, the relative viability (SW 900; first compound 0.02 µM) was 0.818, the relative viability (SW 900; first compound 0.06325 µM) was 0.163 and the relative viability (SW 900; first compound 0.2 µM) was 0.152. It also gave a relative viability (ABC-1; first compound 0.002 µM) of 0.928, a relative viability (ABC-1; first compound 0.006325 µM) of 1.02 and a relative viability (ABC-1; first compound 0.02 µM) of 0.526. For the same compound, the relative viability (ABC-1; first compound 0.06325 µM) was 0.337, the relative viability (ABC-1; first compound 0.2 µM) was 0.244 and the relative viability (NCI-H460; first compound 0.002 µM) was 0.514. It also gave a relative viability (NCI-H460; first compound 0.006325 µM) of 0.37, a relative viability (NCI-H460; first compound 0.02 µM) of 0.454 and a relative viability (NCI-H460; first compound 0.06325 µM) of 0.0514. For the same compound, the relative viability (NCI-H460; first compound 0.2 µM) was 0.0343, the relative viability (A-427; first compound 0.002 µM) was 0.782 and the relative viability (A-427; first compound 0.006325 µM) was 0.732. It also gave a relative viability (A-427; first compound 0.02 µM) of 0.716, a relative viability (A-427; first compound 0.06325 µM) of 0.445 and a relative viability (A-427; first compound 0.2 µM) of 0.251.
